The values that follow come from patent publication US20250346600A1, “TRICYCLIC DERIVATIVES AND RELATED USES” (MOMA Therapeutics, Inc., priority 2023, published 2025).

Molecules are shown by their SMILES.

The target of assay [1] is T1, Full length WRN protein (aa 2-1432) (Homo sapiens (Human), UniProt Q14191). The experiment in a line: WRN ATPase ADP-Glo biochemical assay, Assay Format A (10 μM ATP). The settings on record: 0.25 nM WRN, 100 nM C6.18 ssDNA, 30 min preincubation, read-out: ATPase ADPGlo AC50 (uM)- Assay Format A. From the text:
Full length Werner helicase construct (Uniprot: Q14191) with an N-terminal FLAG-AVI-TEV tag was expressed using the Sf9 cell/baculovirus expression system. The harvested cell pellet was resuspended and lysed in a glass homogenizer. After insoluble material was removed by centrifugation, the helicase protein was first purified with FLAG affinity resin and then further purified through a size-exclusion chromatography column. Peak fractions containing the purified protein were concentrated, split into aliquots and frozen in liquid nitrogen to be thawed before use. Biochemical Assay Description (ATPase activity)-Assay Format A WRN activity was measured using an ATPase assay. Full length WRN protein (aa 2-1432) (production described separately) was used for the biochemical activity assays. The 39-mer ssDNA “C6.18” [NT] was purchased from IDT and used as a substrate. Quantification of ATP hydrolysis was evaluated using the ADP-Glo assay kit (Promega, Madison, WI). An enzyme titration time-course was performed to determine the optimal assay conditions. […] To evaluate the inhibitory effects of the compounds, 11-point 3-fold serial dilutions were prepared in DMSO. 50 nL of each concentration in duplicate was preincubated for 30 minutes in a 384-well microplate (Greiner #784075) with 5 μL of 0.5 nM WRN in assay buffer. The reaction was initiated by adding 5 μL of 200 nM C6.18 DNA with 20 μM ATP and was allowed to proceed for 30 minutes at room temperature. The reaction was stopped with 10 μL ADP-Glo reagent for 1 hour to remove unreacted ATP. Lastly, 20 μL ATP detection reagent was added and incubated for 1 hour to generate the luminescence signal. Control wells included “high controls” with no inhibition (DMSO, no compound) and “low controls” with maximum inhibition (no WRN). Luminescence was recorded on a PHERAstar (BMG Labtech, Ortenberg, Germany). Data was fit using the “Smart Fit” method within the Genedata Screener Software (Basel, Switzerland) to obtain IC50 values using four-parameter fits. Reported IC50s are the geometric means of at least two independent trials.
A general note: In ADP-Glo the light output rises with the ADP produced.

A further assay concerns HT29 cells. The experiment in a line: HT29 (MSS) 7 day viability, CellTiter Glo. The note with it: Homo sapiens, HT-29, 168 h, 7 days, read-out: HT29 (MSS) Viability 7 Day CTGAbs AC50. It counts as cell-based. Put shortly:
(§1)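 HCT116 seeded at 50 cells/well and HT29 at 500 cells/well onto compound plates (10-point 3-fold dilutions from 10 mM DMSO stock), incubated 7 days at 37 °C, 5% CO2.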

Another assay relates to HCT116 cells. The assay can be described thus: HCT116 (MSI) 7 day viability, CellTiter Glo. The assay is classed as cell-based. The settings on record: Homo sapiens, HCT-116, 168 h, 7 days, read-out: HCT116 (MSI) Viability 7 Day Abs AC50. In outline:
as §1
(Cellular ATP, detected with luciferase, serves as a proxy for viable cell number.)

Assay [2] deals with T1, Full length WRN protein (aa 2-1432). The assay can be described thus: WRN ATPase ADP-Glo biochemical assay, Assay Format B (100 μM ATP). The settings on record: 0.25 nM WRN, 100 nM C6.18 ssDNA, 60 min preincubation.
Where [3] appears, read: read-out: ATPase ADPGlo AC50 (uM)- Assay Format B.

T1 sequence (Q14191 2-1432): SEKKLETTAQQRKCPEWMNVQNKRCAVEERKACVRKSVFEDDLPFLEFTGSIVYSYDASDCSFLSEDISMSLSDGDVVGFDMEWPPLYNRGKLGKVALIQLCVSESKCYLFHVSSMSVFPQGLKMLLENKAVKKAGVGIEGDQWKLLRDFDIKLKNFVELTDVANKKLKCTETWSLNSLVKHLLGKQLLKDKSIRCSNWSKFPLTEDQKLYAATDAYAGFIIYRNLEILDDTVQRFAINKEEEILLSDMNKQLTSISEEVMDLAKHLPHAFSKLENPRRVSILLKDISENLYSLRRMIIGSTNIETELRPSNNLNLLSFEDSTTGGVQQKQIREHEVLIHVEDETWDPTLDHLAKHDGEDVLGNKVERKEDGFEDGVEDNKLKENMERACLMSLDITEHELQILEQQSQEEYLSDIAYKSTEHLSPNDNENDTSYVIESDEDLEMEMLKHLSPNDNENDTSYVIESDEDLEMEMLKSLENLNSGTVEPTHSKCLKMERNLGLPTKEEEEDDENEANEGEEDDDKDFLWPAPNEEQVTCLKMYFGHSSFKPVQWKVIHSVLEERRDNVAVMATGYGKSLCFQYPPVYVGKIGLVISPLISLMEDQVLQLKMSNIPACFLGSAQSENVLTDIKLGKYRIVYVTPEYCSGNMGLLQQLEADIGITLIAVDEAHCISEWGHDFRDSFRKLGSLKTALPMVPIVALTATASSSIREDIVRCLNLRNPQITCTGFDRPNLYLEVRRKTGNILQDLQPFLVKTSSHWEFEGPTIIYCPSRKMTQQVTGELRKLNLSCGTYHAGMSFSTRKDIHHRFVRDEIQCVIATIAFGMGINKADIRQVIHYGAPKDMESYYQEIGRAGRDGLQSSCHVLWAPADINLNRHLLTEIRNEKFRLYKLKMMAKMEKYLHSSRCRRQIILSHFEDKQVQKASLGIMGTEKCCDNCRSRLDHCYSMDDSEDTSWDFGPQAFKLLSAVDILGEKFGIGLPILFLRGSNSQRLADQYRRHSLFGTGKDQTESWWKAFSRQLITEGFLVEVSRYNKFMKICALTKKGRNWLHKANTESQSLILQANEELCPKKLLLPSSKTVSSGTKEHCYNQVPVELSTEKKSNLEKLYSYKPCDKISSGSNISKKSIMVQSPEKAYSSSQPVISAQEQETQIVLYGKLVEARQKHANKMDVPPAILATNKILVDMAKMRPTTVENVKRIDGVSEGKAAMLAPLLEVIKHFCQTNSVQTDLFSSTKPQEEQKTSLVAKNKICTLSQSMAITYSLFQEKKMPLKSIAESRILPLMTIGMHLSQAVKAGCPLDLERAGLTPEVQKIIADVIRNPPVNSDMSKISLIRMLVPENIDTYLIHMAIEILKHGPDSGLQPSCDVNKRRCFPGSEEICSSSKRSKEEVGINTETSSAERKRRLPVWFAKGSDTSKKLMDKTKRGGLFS

By AC50 is commonly meant the concentration at which the activity in the assay is half-maximal. `C=CC(=O)N1CCc2nn(-c3ccc(C(C)C)cc3)c3c2C(C1)N(C(=O)c1ccc2c(cnn2C(F)(F)F)c1)CC3` (stereo not drawn) [Compound 11, 1-(2-(4-isopropylphenyl)-5-(1-(trifluoromethyl)-1H-indazole-5-carbonyl)-2,3,4,5,5a,6,8,9-octahydro-7H-1,2,5,7-tetraazabenzo[cd]azulen-7-yl)prop-2-en-1-one]: the AC50 in assay [1] was more than 0.055 µM; in the assay with HT29 cells it was more than 3000 nM; in the assay on HCT116 cells it was more than 1000 nM.
In the same order, the values of `CC(C)c1ccc(-n2nc3c4c2CCN(C(=O)c2ccc(Br)c5[nH]cnc25)C4CN(C(=O)C2=CCC2)CC3)cc1` (stereo not drawn) [Compound 16, (7-bromo-1H-benzo[d]imidazol-4-yl)(7-(cyclobut-1-ene-1-carbonyl)-2-(4-isopropylphenyl)-2,3,4,5a,6,7,8,9-octahydro-5H-1,2,5,7-tetraazabenzo[cd]azulen-5-yl)methanone] are more than 0.055 µM, more than 3000 nM and more than 1000 nM.
Take `C=CC(=O)N1Cc2nn(-c3ccc(C(C)C)cc3C)c3c2C(C1)N(C(=O)c1ccc(Br)c(O)c1)CC3` (stereo not drawn) [Compound 35, 1-(6-(4-bromo-3-hydroxybenzoyl)-1-(4-isopropyl-2-methylphenyl)-1,5,5a,6,7,8-hexahydropyrazolo[3,4,5-de][1,7]naphthyridin-4(3H)-yl)prop-2-en-1-one]: the results for the AC50 (in assay [1]; in the assay with HT29 cells; in the assay with HCT116 cells) were 0.005 to 0.015 µM, more than 3000 nM and 100 to 250 nM, respectively.
In the case of `C=CC(=O)N1CCc2nn(-c3ccc(C4CC4)cc3)c3c2C(C1)N(C(=O)c1ccc(Br)nn1)CC3` (stereo not drawn) [Compound 108, 1-(5-(6-bromopyridazine-3-carbonyl)-2-(4-cyclopropylphenyl)-2,3,4,5,5a,6,8,9-octahydro-7H-1,2,5,7-tetraazabenzo[cd]azulen-7-yl)prop-2-en-1-one], in assay [1], the AC50 fell in the range of 0.005 to 0.015 µM.
On the same count and under the same terms, with `C=CC(=O)N1CCc2nn(-c3ccc(C4CC4)cc3)c3c2C(C1)N(C(=O)c1cnc2c(c1)c(C(F)(F)F)nn2C)CC3` (stereo not drawn) [Compound 111, 1-(2-(4-cyclopropylphenyl)-5-(1-methyl-3-(trifluoromethyl)-1H-pyrazolo[3,4-b]pyridine-5-carbonyl)-2,3,4,5,5a,6,8,9-octahydro-7H-1,2,5,7-tetraazabenzo[cd]azulen-7-yl)prop-2-en-1-one] the figure was 0.015 to 0.055 µM; with `C=CC(=O)N1CCc2nn(-c3ccc(C4CC4)cc3)c3c2C(C1)N(C(=O)c1cnc(Br)cc1C)CC3` (stereo not drawn) [Compound 113, 1-(5-(6-bromo-4-methylnicotinoyl)-2-(4-cyclopropylphenyl)-2,3,4,5,5a,6,8,9-octahydro-7H-1,2,5,7-tetraazabenzo[cd]azulen-7-yl)prop-2-en-1-one], 0.005 to 0.015 µM.
The same measure, in the same setting: under `C=CC(=O)N1CCc2nn(-c3ccc(C4CC4)cc3)c3c2C(C1)N(C(=O)C12CC(C(F)(F)F)(C1)C2)CC3` (stereo not drawn) [Compound 121, 1-(2-(4-cyclopropylphenyl)-5-(3-(trifluoromethyl)bicyclo [1.1.1]pentane-1-carbonyl)-2,3,4,5,5a,6,8,9-octahydro-7H-1,2,5,7-tetraazabenzo[cd]azulen-7-yl)prop-2-en-1-one] stands 0.015 to 0.055 µM.
On the same count and under the same terms, with `C=CC(=O)N1CCc2nn(-c3ccc(C4CC4)cc3)c3c2C(C1)N(C(=O)c1cnc2[nH]c(C(F)(F)F)nc2c1)CC3` (stereo not drawn) [Compound 124, 1-(2-(4-cyclopropylphenyl)-5-(2-(trifluoromethyl)-3H-imidazo[4,5-b]pyridine-6-carbonyl)-2,3,4,5,5a,6,8,9-octahydro-7H-1,2,5,7-tetraazabenzo[cd]azulen-7-yl)prop-2-en-1-one] the figure was 0.015 to 0.055 µM; with `C=CC(=O)N1CCc2nn(-c3ccc(C4CC4)cc3)c3c2C(C1)N(C(=O)c1csc(S(N)(=O)=O)c1)CC3` (stereo not drawn) [Compound 125, 4-(7-acryloyl-2-(4-cyclopropylphenyl)-3,4,5,5a,6,7,8,9-octahydro-2H-1,2,5,7-tetraazabenzo[cd]azulene-5-carbonyl)thiophene-2-sulfonamide], more than 0.055 µM.
With `C=CC(=O)N1CC(OC2(COC)CC2)c2nn(-c3ccc(C4CC4)cc3)c3c2C(C1)N(C(=O)c1ccc(C(F)(F)F)nc1)CC3` (stereo not drawn) [Compound 235, 1-(2-(4-cyclopropylphenyl)-9-(1-(methoxymethyl)cyclopropoxy)-5-(6-(trifluoromethyl)nicotinoyl)-2,3,4,5,5a,6,8,9-octahydro-7H-1,2,5,7-tetraazabenzo[cd]azulen-7-yl)prop-2-en-1-one], the AC50 with HT29 cells was more than 3000 nM; in assay [2] (setting [3]) it was more than 0.055 µM; in the assay with HCT116 cells, 100 to 250 nM.
Taken in the same sequence, the figures for `C=CC(=O)N1CCc2nn(-c3ccc(C4CCC4)cc3)c3c2C(C1)N(C(=O)c1ccc2c(Cl)ncn2c1)CC3` (stereo not drawn) [Compound 236, 1-(5-(1-chloroimidazo[1,5-a]pyridine-6-carbonyl)-2-(4-cyclobutylphenyl)-2,3,4,5,5a,6,8,9-octahydro-7H-1,2,5,7-tetraazabenzo[cd]azulen-7-yl)prop-2-en-1-one] were more than 3000 nM, 0.005 to 0.015 µM and 1 to 100 nM.
For the compound `C=CC(=O)N1CCc2nc(-c3ccc(C4CCC4)cc3)n3c2C(C1)N(C(=O)c1ccc(Br)c2[nH]c(C(F)F)nc12)CC3` (stereo not drawn) [Compound 237, 1-(5-(7-bromo-2-(difluoromethyl)-1H-benzo[d]imidazole-4-carbonyl)-2-(4-cyclobutylphenyl)-4,5,5a,6,8,9-hexahydro-1,2a,5,7-tetraazabenzo[cd]azulen-7(3H)-yl)prop-2-en-1-one], the AC50 was more than 3000 nM in the assay on HT29 cells, 0.0015 to 0.005 µM in assay [2] (setting [3]) and 1 to 100 nM in the assay on HCT116 cells.
In the same order, the values of `C=CC(=O)N1CCc2nn(-c3cc(F)c(C4CC4)cc3O)c3c2C(C1)N(C(=O)c1cnc(C(C)(F)F)c(F)c1N)CC3` (stereo not drawn) [Compound 253, 1-[7-[4-amino-6-(1,1-difluoroethyl)-5-fluoro-pyridine-3-carbonyl]-3-(4-cyclopropyl-5-fluoro-2-hydroxy-phenyl)-2,3,7,10-tetrazatricyclo[6.4.1.04,1 3]trideca-1,4(13)-dien-10-yl]prop-2-en-1-one] are more than 3000 nM, 0.005 to 0.015 µM and 1 to 100 nM.
Regarding `C=CC(=O)N1CCc2nn(-c3cc(F)c(C4CC4)cc3O)c3c2C(C1)N(C(=O)c1cnc(OC(F)(F)F)c(F)c1N)CC3` (stereo not drawn) [Compound 254, 1-(5-(4-amino-5-fluoro-6-(trifluoromethoxy)nicotinoyl)-2-(4-cyclopropyl-5-fluoro-2-hydroxyphenyl)-2,3,4,5,5a,6,8,9-octahydro-7H-1,2,5,7-tetraazabenzo[cd]azulen-7-yl)prop-2-en-1-one], the results for the AC50 (in the assay on HT29 cells; in assay [2] (ATPase ADPGlo AC50 (uM)- Assay Format B); in the assay with HCT116 cells) were more than 3000 nM, 0.015 to 0.055 µM and 1 to 100 nM, respectively.
`C=CC(=O)N1CCc2nn(-c3ccc(C4CC4)cc3O)c3c2C(C1)N(C(=O)c1ccc(C(F)(F)F)c(F)c1N)CC3` (stereo not drawn) [Compound 259, 1-(5-(2-amino-3-fluoro-4-(trifluoromethyl)benzoyl)-2-(4-cyclopropyl-2-hydroxyphenyl)-2,3,4,5,5a,6,8,9-octahydro-7H-1,2,5,7-tetraazabenzo[cd]azulen-7-yl)prop-2-en-1-one]: the figures for the AC50 (in the assay on HT29 cells; in assay [2] (setting [3]); in the assay with HCT116 cells) were more than 3000 nM, 0.015 to 0.055 µM and 1 to 100 nM, respectively.
